Experimental data published in patent US9585871B2, “Method for treating and curing leishmaniosis using fexinidazole” (Merial Limited, priority 2013, dated 2017).
Several values for one entry are separate records, joined by “and”; a condition that tells them apart may be missing. Equal values may be shown once. Entries after “also recorded” stand apart in the source; their conditions may differ.

Experiments:
[1] = Multiple dosing study in dogs, 28 consecutive days oral: tolerability; assay type: in vivo, dog; conditions: for Effects observed: dog, in vivo
Description: In a particular embodiment, the sufficient fexinidazole plasma levels are achieved by administering oral veterinary compositions comprising an effective amount of fexinidazole over a period of time of at least about twenty days. The fexinidazole may be administered according to any effective regimen, including, but not solely, once weekly, twice weekly, once daily, or twice daily. All that is required is that dosing regimen maintains a sufficient fexinidazole plasma level, over a sufficient period of time, to substantially or completely eliminate or cure the Leishmania infections.
Moreover, inventors expect that a wide variety of dosing regimens are now available to the skilled person to achieve the necessary and sufficient fexinidazole plasma levels. For example, and as further outlined in the Examples below, any dosing regimen that produces substantially similar fexinidazole plasma levels, as compared to those levels produced by giving the dogs about 60 mg/kg/day for about twenty-eight days, is expected to substantially or completely eliminate the Leishmania parasites. Table 1 presents the systemic fexinidazole exposure following dosing of dogs with 50, 200, and 800 mg/kg/day.

[2] = Excretion and metabolites of labeled FEX; assay type: in vivo
Description: (§1) Toxicology summary. In mice and rats, the maximum fexinidazole (FEX) dose after oral administration is 10 g/kg of body weight. […] Finally, as regards PK, labeled FEX and its metabolites were excreted within 3 days in the feces (52-58%) and urine (36-40%).

L. donovani = conditions: mice; Wyllie, Sci Transl. Med 4, 119, 2012; cited from earlier work
chromosome damage = experiment: Chromosome damage in vitro or in vivo
Description: as §1

[3] = Reproductive toxicity study, rabbits; assay type: in vivo; conditions: oral 40 mg/kg for 13 days
Description: as §1

[4] = Toxicology summary: maximum dose after oral administration, rats; assay type: in vivo
Description: as §1

L. infantum [5] = experiment: Clinical study in dogs infected with L. infantum: Overall Biological Score; assay type: in vivo; design: key: additive score of severity of hematology/chemistry changes; conditions: Glucantime 100 mg/kg dNMA SC or Fexinidazole 60 mg/kg PO once daily Days 0-27
Experimental: (§2) In a clinical study, dogs infected with L. infantum were treated with meglumine antimoniate (GLUCANTIME®, Merial) as a positive control, or FEX (Table 5). Eight blocks of two animals were formed based antibody titers and biological scores. Six dogs in each group were naturally infected by housing them in an endemic area for two years and two dogs in each group were artificially infected by intravenous administration of a known quantity of parasites recovered from the spleen of an infected dog.
(§3) The first group (FEX) was compared to the second group, which was treated with 27 mg/kg GLUCANTIME (meglumine antimoniate, or 100 mg/kg of dNMA) “GLU”), over 28 days.
(§4) Variables. The Clinical Score is an additive score of various clinical signs (body condition, lymphadenopathy, splenomegaly, appetite, behavior, mucous membrane color, dermatopathology, ocular signs, digestive signs, arthropathy) evaluated before treatment and on Days 7, 14, 21, 28, 57, 184, 219, 254, 282, 310, 345, 400 and 436. The Overall Biological Score is an additive score based on the severity of changes in hematology/chemistry values (creatinine, urine protein/creatinine, Hct, globulin, ALAT), evaluated pretreatment and on Days 28, 57, and 181. The L. infantum immunofluorescent antibody titers (IFAT) were determined from samples collected before treatment and on Days 28, 57, and 181. Finally, quantitative PCR (qPCR) for L. infantum was conducted on spleen aspirates collected before treatment and on Days 28, 57, 142, 184, and 373.

bone marrow micronucleus = experiment: Mammalian cell mutagenicity, bone marrow micronucleus study; assay type: in vivo; conditions: all test concentrations (500, 1000 and 2000 mg/kg)
Description: as §1

L. infantum [6] = experiment: Clinical study in dogs infected with L. infantum: Clinical Score; assay type: in vivo; design: key: additive score of clinical signs (body condition, lymphadenopathy, etc.); conditions: Glucantime 100 mg/kg dNMA SC or Fexinidazole 60 mg/kg PO once daily Days 0-27
Experimental: as §2, §3, §4

[7] = Toxicology studies in beagles, 90 days (13 weeks); assay type: in vivo; conditions: daily doses up to 125 mg/kg/day for 90 days (13 weeks)
Description: as §1

L. infantum [8] = experiment: Clinical study in dogs infected with L. infantum: overall outcome (cure, relapse, removal of animals); assay type: in vivo; conditions: canines, L. infantum
Experimental: as §2
The first group (FEX) was compared to the second group, which was treated with 27 mg/kg GLUCANTIME (meglumine antimoniate, or 100 mg/kg of dNMA) “GLU”), over 28 days. […]

L. infantum [9] = experiment: Clinical study in dogs infected with L. infantum: qPCR on spleen aspirates; assay type: in vivo; conditions: spleen aspirate, Glucantime 100 mg/kg dNMA SC or Fexinidazole 60 mg/kg PO once daily Days 0-27
Experimental: as §2, §3, §4

[10] = labeled FEX and its metabolites, within 3 days

CSc1ccc(OCc2ncc([N+](=O)[O-])n2C)cc1 [Fexinidazole, fexinidazole]
Effects observed ([1]; 200 mg/kg/day): no effects were observed
Effects observed ([1]; 800 mg/kg/day): only minor effects were observed
Tolerability ([1]; dogs, oral 50, 200 and 800 mg/kg/day for 28 consecutive days): well tolerated
time to excretion of labeled FEX and its metabolites ([2]; feces and urine): ≤ 3 days
main metabolites ([2]; in vivo): the sulfoxide, the sulfone, and the corresponding phenolic fragments
excretion in the feces [2, 10]: 52-58%
excretion in the urine [2, 10]: 36-40%
suppression of infection due to L. donovani (L. donovani): able to suppress infection
chromosome damage (chromosome damage): does not induce chromosome damage
embryotoxic effects [3]: no embryotoxic effects
maximum dose after oral administration [4]: 10 g/kg of body weight
Overall Biological Score (L. infantum [5]; Day 28, individual dogs): 3 (2×) and 2 (2×) and 1 (2×) and 0 (2×)
Overall Biological Score, group average (L. infantum [5]; Day 28): 1.5
Overall Biological Score (L. infantum [5]; Day 57, individual dogs): 2 (3×) and 0 (3×) and 3 (2×)
Overall Biological Score, group average (L. infantum [5]; Day 57, Group 1 includes D28 data of Block 3 dog carried forward): 1.5
Overall Biological Score (L. infantum [5]; Day 181, individual dogs): 0 (5×) and 1 (2×) and 3
Overall Biological Score, group average (L. infantum [5]; Day 181, Group 1 includes D28 data of Block 3 dog carried forward): 0.6
Overall Biological Score (L. infantum [5]; Day −14 (pretreatment), individual dogs): 4 and 7 and 5 (2×) and 2 and 3 and 1 and 0
Overall Biological Score, group average (L. infantum [5]; Day −14 (pretreatment)): 3.4
mammalian cell mutagenicity, bone marrow micronucleus study (bone marrow micronucleus): negative
Clinical Score, group average (L. infantum [6]; Day 7): 2.8
Clinical Score (L. infantum [6]; Day 14, individual dogs): 2 (2×) and 0 (2×) and 3 (3×)
Clinical Score, group average (L. infantum [6]; Day 14): 1.6
Clinical Score (L. infantum [6]; Day 21, individual dogs): 0 (5×) and 2 (2×)
Clinical Score, group average (L. infantum [6]; Day 21): 0.5
Clinical Score (L. infantum [6]; Day 28, individual dogs): 0 (4×) and 1 (2×) and 2
Clinical Score, group average (L. infantum [6]; Day 28, Group 1 includes D21 data of Block 3 dog carried forward): 0.5
Clinical Score (L. infantum [6]; Day 57, individual dogs): 2 (3×) and 0 (4×)
Clinical Score, group average (L. infantum [6]; Day 57, Group 1 includes D21 data of Block 3 dog carried forward): 0.8
Clinical Score (L. infantum [6]; Day 184, individual dogs): 0
Clinical Score, group average (L. infantum [6]; Day 184): 0.1
Clinical Score (L. infantum [6]; Day 219, individual dogs): 0 (6×) and 1
Clinical Score, group average (L. infantum [6]; Day 219): 0.1
Clinical Score (L. infantum [6]; Day 254, individual dogs): 0 (7×) and 4
Clinical Score, group average (L. infantum [6]; Day 254): 0.5
Clinical Score (L. infantum [6]; Day 282, individual dogs): 0 (7×) and 2
Clinical Score, group average (L. infantum [6]; Day 282): 0.3
Clinical Score (L. infantum [6]; Day 310, individual dogs): 0 (6×) and 2
Clinical Score, group average (L. infantum [6]; Day 310): 0.3
Clinical Score (L. infantum [6]; Day 345, individual dogs): 0 (6×) and 2
Clinical Score, group average (L. infantum [6]; Day 345): 0.3
Clinical Score (L. infantum [6]; Day 400, individual dogs): 0 (5×) and 1 and 2
Clinical Score, group average (L. infantum [6]; Day 400): 0.4
Clinical Score, group average (L. infantum [6]; Day 436): 0.4
Clinical Score, group average (L. infantum [6]; Day −7 (before treatment)): 2.4
adverse events (AEs) [7]: no observed adverse events
relapse (L. infantum [8]; 180 days after treatment initiation): No relapse was observed
cure of Leishmania infection (L. infantum [8]; oral 60 mg/kg/day for 28 days, qPCR-confirmed, 60 mg/kg/day): can substantially or completely eliminate or cure L. infantum infection in canines; also recorded: sufficient to cure canines of leishmania parasites; also recorded: complete curing efficacy
qPCR for L. infantum (L. infantum [9]; Day 28, individual dogs): BLOQ (BLOQ = Below Level of Quantification = < log 3.64 copies/mL spleen aspirate)
qPCR for L. infantum (L. infantum [9]; Day 57, individual dogs): BLOQ (BLOQ = Below Level of Quantification = < log 3.64 copies/mL spleen aspirate)
qPCR for L. infantum (L. infantum [9]; Day 142, individual dogs): BLOQ (BLOQ = Below Level of Quantification = < log 3.64 copies/mL spleen aspirate)
qPCR for L. infantum (L. infantum [9]; Day 184, individual dogs): BLOQ (BLOQ = Below Level of Quantification = < log 3.64 copies/mL spleen aspirate)
qPCR for L. infantum (L. infantum [9]; Day 373, individual dogs): BLOQ (BLOQ = Below Level of Quantification = < log 3.64 copies/mL spleen aspirate) (7×) and 3.82 log copies/mL
qPCR for L. infantum (L. infantum [9]; Day −7 (before treatment), individual dogs): 7.19 log copies/mL and 7.11 log copies/mL and 5.21 log copies/mL and 5.57 log copies/mL and 6.58 log copies/mL and 5.81 log copies/mL and 6.01 log copies/mL and BLOQ (BLOQ = Below Level of Quantification = < log 3.64 copies/mL spleen aspirate)
